In brackets after ≈: the same amount, converted by molar mass. Entries after “also recorded” stand apart in the source; their conditions may differ.
Key:
[1] = Equilibrium solubility in water; type: physicochemical; details: for solubility classification: water, room temperature, 24 hours
[2] = Stability assessment on storage (XRPD and HPLC purity); type: physicochemical; details: for XRPD change after storage / purity change after storage / stability after storage: 25° C./60% RH and 40° C./75% RH (opened) one week
Experimental: About 10 mg Form A of Compound I was added to each 1.5-mL glass vial and stored at (i) 80° C. (closed) for one day, or (ii) 25° C./60% RH and 40° C./75% RH (opened) for one week, and then analyzed for XRPD and HPLC purity.
About 10 mg Form C of Compound I was added to each 1.5-mL glass vial and stored under 25° C./60% RH (FIG. 13) and 40° C./75% RH (opened, FIG. 14) for one week, and then analyzed for XRPD and HPLC purity.

[3] = Hygroscopicity assessment by DVS; type: physicochemical; details: for hygroscopicity / water uptake: DVS; for XRPD before and after DVS testing: DVS 0% RH-95% RH; for water uptake: 80% RH, 25° C.
Experimental: (§1) X-ray powder diffraction (XRPD) studies in the present disclosure were performed using a Bruker D8 ADVANCE X-ray powder diffractometer. The parameters of the XRPD method of Compound I were as follows: • X-ray reflection: Cu, Kα • Kα1 (Å): 1.540598; Kα2 (Å): 1.544426 • Kα2/Kα1 intensity ratio: 0.50 • Voltage: 40 kV • Current: 40 mA • Scanning range: from 3.0 to 40.0 degree • Differential scanning calorimetry (DSC) data in the present disclosure were acquired by a TA DSC250. The parameters of the DSC method of Compound I were as follows: • Heating rate: 10° C./min • Purging gas: nitrogen • Thermogravimetric analysis (TGA) data in the present disclosure were acquired by a TA TGA550. The parameters of the TGA method of Compound I were as follows: • Heating rate: 10° C./min • Purging gas: nitrogen • Dynamic vapor sorption (DVS) data in the present disclosure were acquired by a SMS Intrinsic DVS. The parameters of the DVS method of Compound I were as follows: • Temperature: 25° C. • Gas and flow rate: nitrogen, 200 mL/min • dm/dt: 0.002%/min • Relative humidity (RH) range: 0% RH-95% RH
About 30 mg Form A of Compound I was assessed for hygroscopicity using a DVS analyzer, and tested by XRPD before and after DVS analysis. DVS is a gravimetric technique that measures how quickly and how much of a solvent is absorbed by a sample.
About 30 mg Form C of Compound I was assessed for hygroscopicity using a DVS analyzer, and tested by XRPD before and after DVS analysis.

[4] = Thermogravimetric analysis (thermal stability); type: physicochemical
Experimental: TGA is a method of thermal analysis in which the mass of a sample is measured over time as the temperature changes. TGA evaluates the thermal stability of a material.
as §1

[5] = Interconversion of Forms A-C (heating and slurry competition); type: physicochemical; details: for form obtained from slurry competition: equal amounts of Form A and B, isopropyl alcohol/water, aw=0~1, room temperature
Text: The relationships among Forms A-C were investigated via heating and slurry competition experiments.

[6] = test system: fibroblast growth factor receptor (FGFR); details: cited from earlier work
[7] = 25° C./60% RH for 1 week (opened)
[8] = 40° C./75% RH for 1 week (opened)

SMILES	solubility classification [1]	Purity (%) [2, 7] [%]	Purity (%) [2, 8] [%]	Purity (%) ([2]; Day 0)	hygroscopicity [3]	XRPD before and after DVS testing [3]	water uptake [3] [%]	weight loss (TGA) ([4]; heated to 180° C.)	form obtained from slurry competition [5]	also measured
C=CC(=O)N1CC[C@H](n2nc(C#Cc3cc(OC)cc(OC)c3)c(C(N)=O)c2NC)C1 [Form C, (S)-1-(1-acryloylpyrrolidin-3-yl)-3-((3,5-dimethoxyphenyl)ethynyl)-5-(methylamino)-1H-pyrazole-4-carboxamide]	almost insoluble or insoluble	96.91	96.99	96.83	moderately hygroscopic; also recorded: moderately hydgroscopic	did not change	5.44	about 2.40%	–	solubility ([1]; after equilibrium in water at room temperature for 24 hours): 15.93 µg/mL (≈ 37.6 µM); XRPD change after storage [2]: little or no change; purity change after storage [2]: no significant purity change; stability after storage [2]: stable; form conversion on heating ([5]; heating to 145° C. and subsequently cooling to room temperature): converted to Form A
C=CC(=O)N1CC[C@H](n2nc(C#Cc3cc(OC)cc(OC)c3)c(C(N)=O)c2NC)C1 [Compound I, (S)-1-(1-acryloylpyrrolidin-3-yl)-3-((3,5-dimethoxyphenyl)ethynyl)-5-(methylamino)-1H-pyrazole-4-carboxamide]	–	–	–	–	–	–	–	–	–	FGFR inhibition [6]: potent inhibitor
C=CC(=O)N1CC[C@H](n2nc(C#Cc3cc(OC)cc(OC)c3)c(C(N)=O)c2NC)C1 [Form B, (S)-1-(1-acryloylpyrrolidin-3-yl)-3-((3,5-dimethoxyphenyl)ethynyl)-5-(methylamino)-1H-pyrazole-4-carboxamide]	–	–	–	–	–	–	–	–	gave Form A	solubility thermodynamic ([1]; thermodynamic from solid, conditions not stated): 15.1 µg/mL (≈ 35.8 µM); chemical stability [2]: chemically stable; physical stability ([2]; can be converted to Form A or Form C): not physically stable; weight loss by TGA ([4]; temperature not stated): about 2.42%
C=CC(=O)N1CC[C@H](n2nc(C#Cc3cc(OC)cc(OC)c3)c(C(N)=O)c2NC)C1 [Form A, (S)-1-(1-acryloylpyrrolidin-3-yl)-3-((3,5-dimethoxyphenyl)ethynyl)-5-(methylamino)-1H-pyrazole-4-carboxamide]	almost insoluble or insoluble	99.78	99.76	99.75	not hygroscopic	did not change	0.14	about 0.02%	gave Form A	XRPD change after storage ([2]; 80° C. (closed) one day): little or no change; purity change after storage ([2]; 80° C. (closed) one day): no purity change; stability after storage ([2]; 80° C. (closed) one day): stable; Purity (%) ([2]; 80° C. for 1 day (closed)): 99.77%; thermal stability ([4]; TGA, heated to 180° C.): thermally stable; thermodynamic stability ([5]; room temperature, versus Form B and C): better thermodynamic stability
